Experimental data taken from patent US7087620B2, “Liquid pharmaceutical formulations containing 3,7-diazabicyclo[3,3,1]nonane compounds and methods of treatment relating to anti-arrhythmic events” (Solvay Pharmaceuticals GmbH, priority 2002, dated 2006).

System: patients with atrial fibrillation
Assay: Placebo-controlled ascending dose study of intravenous tedisamil: conversion to normal sinus rhythm, patients with atrial fibrillation
Assay type: in vivo, human
Settings: for Percentage of patients converted to normal sinus rhythm at any time within 2.5 hours after the initiation of the infusion: patients with atrial fibrillation taking beta-blockers
Procedure: A Multi-Center, Double-Blind, Randomized, Placebo-Controlled, Sequential Ascending Dose Groups Study to evaluate the Efficacy and Safety of Intravenous Tedisamil in the Rapid Conversion to Normal Sinus Rhythm in Patients with Atrial Fibrillation or Flutter was performed.
• Tedisamil (0.4 mg/kg body weight) • Tedisamil (0.6 mg/kg body weight) • Placebo • Dosages were given as a 30 minute intravenous infusion regimen. 1. Study Design
This multicenter trial was a double-blind, randomized, placebo-controlled, ascending dose groups study comparing the efficacy and safety of intravenous tedisamil treatment versus placebo in symptomatic patients with atrial fibrillation or flutter (>3 hours and <48 hours). The primary efficacy endpoint of this study was the termination of atrial fibrillation or flutter (for at least 60 seconds) within 2.5 hours after start of the infusion.
Following screening and baseline assessments, eligible patients were randomized to tedisamil or placebo with a sequential dose escalation approach. In the first stage, patients received 0.4 mg tedisamil/kg body weight or placebo over a 30 minutes infusion period, with half the dose infused during the first 10 minutes and half the dose infused over the remaining 20 minutes. After interim safety evaluation, in the second stage, patients received 0.6 mg tedisamil/kg body weight or placebo, with the same infusion regimen.
Patients were discharged from the telemetry unit 24 hours post infusion and safety follow up was to be obtained after 28 days. Blinded reviews of 12-lead ECGs (including 60 seconds rhythm strip) and 24 hour Holters to adjudicate the clinical endpoint (conversion to normal sinus rhythm) were performed centrally according to standard guidelines.
Tedisamil dihydrochloride, 0.4 mg/kg body weight, 0.6.mg/kg body weight was administered intravenously. The total infusion time was 30 minutes, with half the dose infused within 10 minutes, and half the dose infused within the remaining 20 minutes.
The percentage of patients converted to normal sinus rhythm (for at least 60 seconds) at any time within 2.5 hours after the initiation of the infusion of study drug.
6.1.2 Secondary Efficacy • The percentage of patients converted to normal sinus rhythm (for at least 60 seconds) at any time within 2.5 hrs and remaining in sinus rhythm until 2.5 hours after initiation of the intravenous infusion of tedisamil versus placebo. • The percentage of patients converted to normal sinus rhythm (for at least 60 seconds) at any time within 24 hours after initiation of the intravenous infusion of tedisamil versus placebo. • The percentage of patients converted to normal sinus rhythm (for at least 60 seconds) at any time within 24 hrs and remaining in sinus rhythm until 24 hours after initiation of the intravenous infusion of tedisamil versus placebo. • The percentage of patients converted to normal sinus rhythm (for at least 60 seconds) at any time within 2.5 hrs and remaining in sinus rhythm until 24 hours after initiation of the intravenous infusion of tedisamil versus placebo. • The time to conversion after the start of the infusion of tedisamil versus placebo. • The dose- and concentration-response relationships of tedisamil versus placebo.
The intent-to-treat patient sample was analyzed for efficacy. All tests were two-sided and a p-value <0.05 was considered significant. Differences in percentages of conversion were compared among the treatment groups using the Pearson chi-square statistic. Safety analysis was conducted on the safety patient sample. Numbers and percentages of patients with adverse events were calculated for each treatment group, using MedDRA preferred terms and body systems. Descriptive statistics were summarized by treatment group for changes from baseline in QT, heart rate and blood pressure. […]

[1] = 0.4 mg/kg iv two-step 30 minute infusion, patients with atrial fibrillation
[2] = 0.6 mg/kg iv two-step 30 minute infusion, patients with atrial fibrillation
[3] = Atrial Fibrillation, Female, 0.4 mg/kg, ITT patient sample, patients with DC cardioversion excluded
[4] = Atrial Fibrillation, Female, 0.6 mg/kg, ITT patient sample, patients with DC cardioversion excluded
[5] = Atrial Fibrillation, Male, 0.4 mg/kg, ITT patient sample, patients with DC cardioversion excluded
[6] = Atrial Fibrillation, Male, 0.6 mg/kg, ITT patient sample, patients with DC cardioversion excluded
[7] = atrial fibrillation, Female, <65 yrs, 0.4 mg/kg, ITT, DC cardioversion excluded
[8] = atrial fibrillation, Female, <65 yrs, 0.6 mg/kg, ITT, DC cardioversion excluded
[9] = atrial fibrillation, Female, >=65 yrs, 0.4 mg/kg, ITT, DC cardioversion excluded
[10] = atrial fibrillation, Female, >=65 yrs, 0.6 mg/kg, ITT, DC cardioversion excluded
[11] = atrial fibrillation, Male, <65 yrs, 0.4 mg/kg, ITT, DC cardioversion excluded
[12] = atrial fibrillation, Male, <65 yrs, 0.6 mg/kg, ITT, DC cardioversion excluded
[13] = atrial fibrillation, Male, >=65 yrs, 0.4 mg/kg, ITT, DC cardioversion excluded
[14] = atrial fibrillation, Male, >=65 yrs, 0.6 mg/kg, ITT, DC cardioversion excluded

C1CCC2(C1)C1CN(CC3CC3)CC2CN(CC2CC2)C1 [Tedisamil, N,N′-dicyclopropylmethyl-9,9-tetramethylene-3,7-diazabicyclo[3,3,1]nonane]
Conversion to NSR at any time within 24 hrs after the start of infusion (patients out of total) [1]: 26 out of 42
Conversion to NSR at any time within 24 hrs after the start of infusion (percentage of patients) [1]: (62%)
Conversion to NSR at any time within 24 hrs and remaining in NSR until 24 hrs after the start of infusion (patients out of total) [1]: 24 out of 42
Conversion to NSR at any time within 24 hrs and remaining in NSR until 24 hrs after the start of infusion (percentage of patients) [1]: (57%)
Conversion to NSR at any time within 2.5 hrs after the start of infusion (patients converted out of total) [2]: 24 out of 42
Conversion to NSR at any time within 2.5 hrs and remaining in NSR until 2.5 hrs after the start of infusion (patients out of total) [2]: 24 out of 42
Conversion to NSR at any time within 2.5 hrs and remaining in NSR until 2.5 hrs after the start of infusion (percentage of patients) [2]: (57%)
Conversion to NSR at any time within 2.5 hrs and remaining in NSR until 24 hrs after the start of infusion (patients out of total) [2]: 22 out of 37
Conversion to NSR at any time within 2.5 hrs and remaining in NSR until 24 hrs after the start of infusion (percentage of patients) [2]: (59%)
Conversion to NSR at any time within 24 hrs after the start of infusion (patients out of total) [2]: 26 out of 37
Conversion to NSR at any time within 24 hrs after the start of infusion (percentage of patients) [2]: (70%)
Conversion to NSR at any time within 24 hrs and remaining in NSR until 24 hrs after the start of infusion (patients out of total) [2]: 24 out of 37
Conversion to NSR at any time within 24 hrs and remaining in NSR until 24 hrs after the start of infusion (percentage of patients) [2]: (65%)
Conversion to NSR at any time within 2.5 hrs after start of infusion (%) [3]: 35.3%
Conversion to NSR at any time within 2.5 hrs after start of infusion (converted/total) [3]: 6/17
Conversion to NSR at any time within 2.5 hrs after start of infusion (%) [4]: 37.5%
Conversion to NSR at any time within 2.5 hrs after start of infusion (converted/total) [4]: 6/16
Conversion to NSR at any time within 2.5 hrs after start of infusion (%) [5]: 51.4%
Conversion to NSR at any time within 2.5 hrs after start of infusion (converted/total) [5]: 18/35
Conversion to NSR at any time within 2.5 hrs after start of infusion (%) [6]: 69.2%
Conversion to NSR at any time within 2.5 hrs after start of infusion (converted/total) [6]: 18/26
Conversion to NSR at any time within 2.5 hrs after start of infusion (%) [7]: 40.0%
Conversion to NSR at any time within 2.5 hrs after start of infusion (converted/total) [7]: 2/5
Conversion to NSR at any time within 2.5 hrs after start of infusion (%) [8]: 33.3%
Conversion to NSR at any time within 2.5 hrs after start of infusion (converted/total) [8]: 1/3
Conversion to NSR at any time within 2.5 hrs after start of infusion (%) [9]: 33.3%
Conversion to NSR at any time within 2.5 hrs after start of infusion (converted/total) [9]: 4/12
Conversion to NSR at any time within 2.5 hrs after start of infusion (%) [10]: 38.5%
Conversion to NSR at any time within 2.5 hrs after start of infusion (converted/total) [10]: 5/13
Conversion to NSR at any time within 2.5 hrs after start of infusion (%) [11]: 50.0%
Conversion to NSR at any time within 2.5 hrs after start of infusion (converted/total) [11]: 10/20
Conversion to NSR at any time within 2.5 hrs after start of infusion (%) [12]: 72.2%
Conversion to NSR at any time within 2.5 hrs after start of infusion (converted/total) [12]: 13/18
Conversion to NSR at any time within 2.5 hrs after start of infusion (%) [13]: 51.4%
Conversion to NSR at any time within 2.5 hrs after start of infusion (converted/total) [13]: 8/15
Conversion to NSR at any time within 2.5 hrs after start of infusion (%) [14]: 62.5%
Conversion to NSR at any time within 2.5 hrs after start of infusion (converted/total) [14]: 5/8
Percentage of patients converted to normal sinus rhythm at any time within 2.5 hours after the initiation of the infusion (0.4 mg group): 52%
Percentage of patients converted to normal sinus rhythm at any time within 2.5 hours after the initiation of the infusion (0.6 mg group): 60%
